{"source": "patent US12214036B2", "about": "“Combination therapy comprising AXL/MER and PD-1/PD-L1 inhibitors” (Incyte Corporation, priority 2020, dated 2025)", "key": {"[1]": {"test_system": "BAF3 cells expressing MER", "assay": "BAF3-MER cell proliferation assay (CellTiter-Glo)", "type": "cell-based", "conditions": "Mus musculus, 48 hours, 2% FBS", "from_the_text": "To evaluate the cellular potency and selectivity within the TAM receptor family, mouse BAF3 cell lines with stable expression of AXL, MER, or TYRO3 were generated.\nThe cytoplasmic domain of AXL, MER, or TYRO3 fused with dimerization sequence and HA tag was cloned into a pMSCV (murine stem cell virus) vector with a puromycin-resistance marker to generate three constructs individually by electroporation into BAF3 cells. Single clones that were IL-3-independent and puromycin-resistant were selected and characterized. To evaluate effects on BAF3 cell proliferation, 1000 cells/well of BAF3, BAF3-AXL, BAF3 MER, or BAF3-TYRO3 cells were treated in the presence or absence of Compound 1 at various concentrations (10 concentration points with a three-fold dilution factor from the highest concentration of 10 μM) diluted in RPMI-1640 with 2% FBS for 48 hours in a 384-well plate. Cell viability was measured by ATP assay (CellTiter-Glo Assay, Promega, Madison, Wis.) according to the manufacturer's procedure. The data were converted to percent inhibition relative to DMSO control, and IC50 curves were fitted using GraphPad Prism software."}, "4T1 tumor": {"test_system": "4T1 tumor", "assay": "4T1 syngeneic tumor model", "type": "in vivo, BALB/c mice", "description": "To test potential immunomodulatory activity of Compound 1 in vivo, antitumor efficacy studies were performed in syngeneic tumor models.\nMBT-2 cells were obtained from the Japanese Collection of Research Bioresources Cell Bank and were maintained in DMEM supplemented with 10% FBS. MC38 cells were obtained from the NCI. 4T1 cells were obtained from ATCC and maintained in RPMI media supplemented with 10% FBS. For MBT-2 experiments, 5×10^5 MBT-2 cells were inoculated subcutaneously into the right hind flank of 6- to 8-week-old C3H mice or athymic nude mice (Charles River Laboratories, Wilmington, Mass.). For MC38 studies, 12-week old female C57BL/6 mice were inoculated with brei of MC38 tumors (in-vivo passage 6) into the right hind flank. For 4T1 studies, 7.5×10^5 4 T1 cells were inoculated subcutaneously into the right hind flank of 6- to 8-week-old female BALB/c mice or athymic nude mice (Charles River Laboratories). […] Mice were monitored for tumor growth and overt tolerability over the course of the experiment. […] Tumor volume was calculated using the formula (L×W^2)/2, where L and W refer to the length and width dimensions, respectively. Tumor growth inhibition (TGI) was calculated using the formula (1−(VT/VC))×100, where VT is the tumor volume of the treatment group on the last day of treatment, and VC is the tumor volume of the control group on the last day of treatment. […]"}}}
{"molecule": "CC(C)C(=O)N1CCC(c2cc(-c3ccc(NC(=O)c4cn(C(C)C)c(=O)n(-c5ccccn5)c4=O)cc3)c3c(N)ncnn23)CC1", "note": "[Compound 1, N-(4-(4-Amino-7-(1-isobutyrylpiperidin-4-yl)pyrrolo[1,2-f][1,2,4]triazin-5-yl)phenyl)-1-isopropyl-2,4-dioxo-3-(pyridin-2-yl)-1,2,3,4-tetrahydropyrimidine-5-carboxamide]", "values": [{"measurement": "GI50", "setting": "[1]", "value": "14 ± 4.9", "unit": "nM"}, {"measurement": "antitumor efficacy (tumor volume)", "setting": "4T1 tumor; 4T1 in BALB/c mice, oral BID, FIG. 7B", "value": "dose-dependent efficacy"}, {"measurement": "ratio of M1-like to M2-like macrophages", "setting": "4T1 tumor; 4T1 tumors, flow cytometry, FIG. 7D", "value": "increased the ratio of M1-like to M2-like macrophages in a dose-dependent manner"}]}
